Experimental data taken from patent publication US12116422B2, “Stapled peptide and use thereof in preparation of drug for treating pancreatic cancer” (Ruijin Hospital, Shanghai Jiao Tong University School of …, priority 2022, dated 2024).
Entries after “also recorded” stand apart in the source; their conditions may differ. Read-outs that look alike come from different tables or passages of the source. Blank lines part the entries; values can stand above or below the molecule they belong to. Where a SMILES comes first, the peptide text is derived from it. Bridges are numbered along the chain shown (N, C = ends). Where no end group is shown, it is not given here. [ ]: non-standard residue; d: D form. R5 = C=CCCC[C@@](C)(N)C(=O)O

Key:
ANK domain of N1ICD [1] = target: T1, ANK domain of N1ICD (Homo sapiens, UniProt P46531); experiment: KD (M)
Excerpt: Table printed on a drawing sheet, FIG. 1C
(§1) Head of the field: KD (M)
First copying reader's note: Brackets drawn over the sequences join the two S5 residues of each staple; the SAH-mAH2-5 row is printed in lighter (highlighted) type.
Target sequence in this assay (P46531 19-2555 limits assumed): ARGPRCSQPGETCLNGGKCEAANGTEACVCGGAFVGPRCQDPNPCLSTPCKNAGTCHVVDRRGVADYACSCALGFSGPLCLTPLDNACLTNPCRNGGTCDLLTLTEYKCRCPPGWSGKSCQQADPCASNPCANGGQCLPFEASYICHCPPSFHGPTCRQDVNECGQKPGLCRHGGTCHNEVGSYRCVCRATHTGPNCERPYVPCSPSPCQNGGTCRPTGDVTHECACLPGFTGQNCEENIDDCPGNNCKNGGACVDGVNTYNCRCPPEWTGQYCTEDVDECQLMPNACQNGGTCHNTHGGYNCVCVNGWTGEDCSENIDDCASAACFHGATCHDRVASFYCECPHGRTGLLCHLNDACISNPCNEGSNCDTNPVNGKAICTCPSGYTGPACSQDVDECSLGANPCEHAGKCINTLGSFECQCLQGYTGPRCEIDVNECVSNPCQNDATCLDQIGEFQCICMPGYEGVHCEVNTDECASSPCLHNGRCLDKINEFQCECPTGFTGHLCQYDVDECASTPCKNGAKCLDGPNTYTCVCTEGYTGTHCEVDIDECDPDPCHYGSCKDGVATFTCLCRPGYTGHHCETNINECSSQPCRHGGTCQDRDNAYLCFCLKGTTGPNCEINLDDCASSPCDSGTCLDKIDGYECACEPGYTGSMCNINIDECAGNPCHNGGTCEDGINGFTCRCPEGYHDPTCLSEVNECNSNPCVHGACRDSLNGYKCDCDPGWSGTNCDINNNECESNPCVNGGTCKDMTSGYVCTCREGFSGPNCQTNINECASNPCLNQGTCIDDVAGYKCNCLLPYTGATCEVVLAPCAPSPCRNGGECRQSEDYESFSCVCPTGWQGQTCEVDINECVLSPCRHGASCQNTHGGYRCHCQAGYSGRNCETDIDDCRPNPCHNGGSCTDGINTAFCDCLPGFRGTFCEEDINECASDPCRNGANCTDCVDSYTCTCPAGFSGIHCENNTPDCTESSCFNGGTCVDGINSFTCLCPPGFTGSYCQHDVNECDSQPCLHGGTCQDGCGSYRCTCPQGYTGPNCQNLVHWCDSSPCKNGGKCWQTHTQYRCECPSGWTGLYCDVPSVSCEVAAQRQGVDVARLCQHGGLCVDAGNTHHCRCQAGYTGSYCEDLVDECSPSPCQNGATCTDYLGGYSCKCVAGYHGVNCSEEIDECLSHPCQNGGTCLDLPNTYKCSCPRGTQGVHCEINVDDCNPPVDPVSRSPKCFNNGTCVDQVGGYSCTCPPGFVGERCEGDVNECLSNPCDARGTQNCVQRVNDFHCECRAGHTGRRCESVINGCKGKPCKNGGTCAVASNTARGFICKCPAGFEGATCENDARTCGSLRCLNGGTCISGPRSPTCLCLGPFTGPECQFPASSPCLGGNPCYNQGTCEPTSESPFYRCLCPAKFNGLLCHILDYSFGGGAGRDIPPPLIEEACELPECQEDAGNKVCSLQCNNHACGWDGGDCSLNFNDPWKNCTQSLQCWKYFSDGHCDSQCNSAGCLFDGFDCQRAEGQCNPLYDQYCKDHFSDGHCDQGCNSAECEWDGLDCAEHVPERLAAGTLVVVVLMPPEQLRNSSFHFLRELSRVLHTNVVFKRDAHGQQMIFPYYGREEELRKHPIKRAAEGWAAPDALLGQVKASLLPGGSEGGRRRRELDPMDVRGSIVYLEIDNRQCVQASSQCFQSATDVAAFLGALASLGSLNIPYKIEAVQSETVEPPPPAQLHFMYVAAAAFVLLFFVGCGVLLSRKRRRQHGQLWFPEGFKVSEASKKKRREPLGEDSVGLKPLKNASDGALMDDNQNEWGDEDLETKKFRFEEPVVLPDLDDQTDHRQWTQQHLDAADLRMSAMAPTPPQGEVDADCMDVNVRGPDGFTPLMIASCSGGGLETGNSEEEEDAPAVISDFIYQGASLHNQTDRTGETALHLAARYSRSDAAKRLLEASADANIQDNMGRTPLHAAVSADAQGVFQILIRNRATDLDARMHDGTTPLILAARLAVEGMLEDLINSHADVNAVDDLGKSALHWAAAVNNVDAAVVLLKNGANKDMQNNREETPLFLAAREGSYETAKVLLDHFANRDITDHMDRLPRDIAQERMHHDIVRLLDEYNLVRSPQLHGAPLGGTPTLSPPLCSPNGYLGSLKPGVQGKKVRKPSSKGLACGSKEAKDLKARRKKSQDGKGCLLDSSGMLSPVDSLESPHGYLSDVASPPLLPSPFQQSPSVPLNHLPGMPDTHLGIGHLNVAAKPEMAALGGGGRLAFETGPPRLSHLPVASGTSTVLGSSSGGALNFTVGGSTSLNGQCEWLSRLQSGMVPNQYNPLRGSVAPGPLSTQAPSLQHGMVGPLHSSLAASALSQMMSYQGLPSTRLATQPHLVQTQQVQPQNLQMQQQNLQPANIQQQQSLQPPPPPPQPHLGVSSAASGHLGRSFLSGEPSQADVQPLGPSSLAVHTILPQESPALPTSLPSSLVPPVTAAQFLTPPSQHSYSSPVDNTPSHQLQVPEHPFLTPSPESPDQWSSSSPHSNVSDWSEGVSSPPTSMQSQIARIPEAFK

ANK domain of N1ICD [2] = target: T1, ANK domain of N1ICD; experiment: SPR binding to the ANK domain
Description: (§2) Surface plasmon resonance (SPR) analysis was conducted with a BlAcore T200 instrument (GE Healthcare, Pittsburgh, USA) to analyze the binding kinetics between N1DARP or SAH-mAH2-5 and a monitor peptide. Dissociation constants (KD) were calculated according to BIA evaluation software.
(§3) A tertiary structure simulating the N1DARP was analyzed online using I-TASSAR, a hierarchical server for protein structure prediction, and two α-helical peptides (AH1 and AH2) were identified (FIG. 1A, left side). […] Furthermore, in order to identify the essential amino acids that mediated the interaction between mAH2 and ANK, amino acid substitutions were conducted for each amino acid of mAH2 substituted with Ala, which were then subjected to SPR analysis. […] Based on the above evidence, mAH2 was then further modified by inserting molecular staples at 5 positions and denoted as stapled α-helices (SAHs).
Target sequence in this assay (P46531 1872-2126 limits assumed): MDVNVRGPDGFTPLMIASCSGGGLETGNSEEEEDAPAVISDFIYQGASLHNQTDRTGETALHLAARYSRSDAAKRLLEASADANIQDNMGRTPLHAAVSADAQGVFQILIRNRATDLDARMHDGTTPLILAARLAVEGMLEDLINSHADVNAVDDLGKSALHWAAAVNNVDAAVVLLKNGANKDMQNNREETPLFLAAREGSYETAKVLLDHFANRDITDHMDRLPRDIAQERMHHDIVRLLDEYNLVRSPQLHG

proteinase K, pepsin = experiment: Incubation with proteinase K and pepsin; assay type: in vitro ADME
Description: (§4) To examine the physicochemical stability of SAH-mAH2-5, mAH2, Pep2-mAH2, and SAH-mAH2-5 were incubated with proteinase K, pepsin, and mouse plasma.

USP10-N1ICD interaction = target: T2, USP10-N1ICD interaction (Homo sapiens, UniProt P46531); experiment: Immunoprecipitation/Western blot of the USP10-N1ICD interaction in Capan1 cells; assay type: cell-based
T2 construct: endogenous in cells; host or cells: Capan1
T2 sequence (P46531 1754-2555 limits assumed): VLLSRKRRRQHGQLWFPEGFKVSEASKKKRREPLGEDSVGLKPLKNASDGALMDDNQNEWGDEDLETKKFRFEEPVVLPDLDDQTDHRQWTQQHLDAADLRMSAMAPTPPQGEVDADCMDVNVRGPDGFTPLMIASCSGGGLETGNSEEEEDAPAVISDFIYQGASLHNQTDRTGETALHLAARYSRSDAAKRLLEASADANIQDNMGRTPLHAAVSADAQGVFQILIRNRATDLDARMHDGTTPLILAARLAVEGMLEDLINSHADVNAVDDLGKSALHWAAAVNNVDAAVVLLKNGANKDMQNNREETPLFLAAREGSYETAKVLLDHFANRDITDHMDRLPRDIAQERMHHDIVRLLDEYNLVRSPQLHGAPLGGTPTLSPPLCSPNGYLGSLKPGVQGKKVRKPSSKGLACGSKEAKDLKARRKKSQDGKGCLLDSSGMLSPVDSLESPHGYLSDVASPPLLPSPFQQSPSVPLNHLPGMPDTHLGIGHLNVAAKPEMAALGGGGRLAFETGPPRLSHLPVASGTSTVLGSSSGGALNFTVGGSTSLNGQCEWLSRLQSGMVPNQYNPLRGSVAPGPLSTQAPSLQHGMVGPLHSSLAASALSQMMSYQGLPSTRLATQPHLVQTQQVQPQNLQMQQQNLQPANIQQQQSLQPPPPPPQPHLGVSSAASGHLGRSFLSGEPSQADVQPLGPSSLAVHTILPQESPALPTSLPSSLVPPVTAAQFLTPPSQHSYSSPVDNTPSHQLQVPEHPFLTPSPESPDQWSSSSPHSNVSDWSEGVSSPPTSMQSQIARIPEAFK
Excerpt: (§5) The pancreatic cancer cell line Capan1 was purchased from the Cell Bank of the Chinese Academy of Sciences. The cells were STR-identified, negative for mycoplasma, and cultured in the RPMI 1640 supplemented with 10% fetal bovine serum and antibiotics.
(§6) A RIPA buffer was mixed with a cocktail of proteases and phosphatase inhibitors for lysing cell samples. Proteins were separated by 10% SDS-PAGE and transferred to a PVDF membrane. The images were generated by a Tanon 5200 chemiluminescence imaging system (Shanghai Tanon Life Science Instrument Co., Ltd.). The corresponding proteins were detected with primary antibodies and appropriate secondary antibodies. The primary antibodies were as follows: anti-USP10 (CST, #8501, 1:1000 for WB, 1:200 for IP), anti-β-actin (CST, #3700, 1:1000 for WB), and anti-N1ICD (CST, #4147, 1:1000 for WB, 1:200 for IP).
Immunoprecipitation analysis: pancreatic cancer cells transfected with indicated plasmid or lentivirus were collected and lysed for 10 min on ice. A resulting lysate was centrifuged to obtain a supernatant, which was then incubated with appropriate antibodies and protein A/G+agarose (Santa Cruz Biotechnology) overnight at 4° C. A resulting immune complex was washed 4 to 6 times and boiled in a 2×SDS sample buffer for 5 min. […] A resulting binding protein was dissolved in the SDS sample buffer and analyzed by immunoblotting.

[3] = Incubation with mouse plasma; assay type: in vitro ADME
Description: as §4

N1ICD = experiment: Western blot of N1ICD expression, stability and ubiquitination in Capan1 cells; assay type: cell-based
Excerpt: as §5, §6
Immunoprecipitation analysis: pancreatic cancer cells transfected with indicated plasmid or lentivirus were collected and lysed for 10 min on ice. A resulting lysate was centrifuged to obtain a supernatant, which was then incubated with appropriate antibodies and protein A/G+agarose (Santa Cruz Biotechnology) overnight at 4° C. A resulting immune complex was washed 4 to 6 times and boiled in a 2×SDS sample buffer for 5 min. A resulting product was separated and co-precipitated using SDS-PAGE and blotted with specific antibodies. A resulting binding protein was dissolved in the SDS sample buffer and analyzed by immunoblotting.

PDOX model of PDAC = experiment: PDO xenograft (PDOX) models in nude mice, tumor volume and survival; assay type: in vivo, Nude BALB/c mice; settings: high USP10 and N1ICD expression; 1/2/3/4/5 mg/kg intravenously weekly
Description: All animal experimental procedures met institutional ethical requirements and were approved by the Animal Use and Care Committee of Shanghai Jiaotong University School of Medicine. Nude BALB/c mice (male, 4 to 6 weeks old) were purchased from the Chinese Academy of Sciences (Shanghai, China) and kept in a specific pathogen-free facility. For a subcutaneously-injected tumor model, the pancreatic cancer patient-derived organoids (5×10^6 cells/site) were injected subcutaneously into the right side of each mouse. From the first injection, a tumor volume was measured every 7 d using the formula: tumor volume (mm^3)=½(a×b^2), where “a” represented the longest longitudinal diameter and “b” represented the longest transverse diameter.
To evaluate the efficacy of SAH-mAH2-5 in vivo, Capan1 cells (1×10^7 cells/site) and four organoids (5×10^6 cells/site) were subcutaneously injected. One week after inoculation, SAH-CTRL/SAH-mAH2-5 (1/2/3/4/5 mg/kg) and GEM (50 mg/kg) were intravenously injected weekly at the indicated concentrations. Within 35 d from the first injection, the tumor volume was measured every 7 d, and the formula was: tumor volume (mm^3)=½(a×b^2). […]

[4] = system: pancreatic cancer patient-derived organoids; experiment: Growth of pancreatic cancer patient-derived organoids (PDOs); assay type: cell-based, human
Excerpt: Four pancreatic cancer tissues were obtained from Ruijin Hospital Affiliated to Shanghai Jiaotong University School of Medicine for organoid culture. All enrolled patients met the following criteria: (i) pathologically diagnosed with pancreatic cancer; (ii) with relatively complete clinicopathological and follow-up data; (iii) without preoperative chemotherapy. Written informed consent was obtained from all relevant patients for the trial, and the study protocol was approved by the Ethics Committee of Ruijin Hospital.
Establishment of patient-derived pancreatic cancer organoids: the normal pancreatic tissues were excised, remaining pancreatic cancer tissues were minced, and enzymatically digested with collagenase (1 mg/ml to 2 mg/ml; Sigma-Aldrich, C9407) in a water bath at 37° C. for 1 h to 2 h. A resulting suspension was filtered through a 100 μm filter to retain tissue debris. The tissue debris was centrifuged at 530 g for 5 min to obtain organoid fractions and resuspended in an RPMI 1640 medium; a resulting suspension was mixed with a cold Matrigel (BD Biocoat, 356234, 10 mg/ml) and then solidified on a pre-warmed 24-well suspension plate at 37° C. for 20 min. After complete gelation, […] of an organoid medium was added to each well, and the plate was transferred to a 37° C./5% humidified CO2 incubator with 2% or ambient O2. […]

[5] = In vivo safety in healthy mice (serum biochemistry, HE staining); settings: 2 mg/kg intravenously weekly for 4 weeks
Description: To roughly assess the toxicity of SAH-mAH2-5, healthy BALB/c nude mice (5 weeks) were intravenously injected with SAH-CTRL or SAH-mAH2-5 (2 mg/kg) weekly for 4 weeks. The mice were sacrificed, and organs such as pancreas, lung, spleen, kidney, liver, and colon were extracted, which were then subjected to HE staining to screen morphological abnormalities. In addition, serum was collected for biochemical analysis of alanine aminotransferase (ALT), aspartate aminotransferase (AST), blood urea nitrogen (BUN), and creatinine (CR) by a chemical analyzer TBA-40FR (Toshiba Medical Systems, Japan).

ANK domain of N1ICD [6] = target: T1, ANK domain of N1ICD; experiment: KD (M); remark: listed apart in the source
Excerpt: Table printed on a drawing sheet, FIG. 1D
as §1
Target sequence in this assay (P46531 19-2555 limits assumed): as the sequence (P46531 19-2555 limits assumed) above
First copying reader's note: Alanine scan of mAH2; the substituted A is printed in lighter type, and the rows mAH2-7, mAH2-9 and mAH2-14 are highlighted in lighter type.
Where the first naming reader finds the target: passage: A tertiary structure of the ANK domain of N1ICD was obtained from a PDB database

ANK1 = experiment: SPR binding to the α-helical regions ANK1 to ANK6
Description: as §2, §3

Kd (ANK domain of N1ICD [1]): 0.00105 µM
Molecule: CC[C@H](C)[C@H](NC(=O)[C@H](CCCNC(=N)N)NC(=O)[C@H](CCCCN)NC(=O)[C@H](C)NC(=O)[C@@H](N)Cc1ccc(O)cc1)C(=O)N[C@]1(C)CCC/C=C\CCC[C@](C)(C(=O)N[C@@H](CO)C(=O)N[C@@H](CCCCN)C(=O)N[C@@H](CCC(N)=O)C(=O)N[C@@H](CC(C)C)C(=O)O)NC(=O)[C@H](CC(C)C)NC(=O)[C@H](CCC(N)=O)NC(=O)[C@H](Cc2ccc(O)cc2)NC1=O [SAH-mAH2-3] (H-YAKRI[R5]YQL[R5]SKQL-OH; staple (Z) 6-10)

Molecule: CC[C@H](C)[C@H](NC(=O)[C@H](CCCNC(=N)N)NC(=O)[C@H](CCCCN)NC(=O)[C@H](C)NC(=O)[C@@H](N)Cc1ccc(O)cc1)C(=O)N[C@]1(C)CCC/C=C/CCC[C@](C)(C(=O)N[C@@H](CC(C)C)C(=O)O)NC(=O)[C@H](CCCCN)NC(=O)[C@H](CO)NC(=O)[C@H](CC(C)C)NC(=O)[C@H](CC(C)C)NC(=O)[C@H](CCC(N)=O)NC(=O)[C@H](Cc2ccc(O)cc2)NC1=O [SAH-mAH2-5, stapled α-helix-modified α-helix 2-5] (H-YAKRI[R5]YQLLSK[R5]L-OH; staple (E) 6-13)
affinity for the ANK domain (ANK domain of N1ICD [2]): strongest binding ability; also recorded: highest affinity for ANK
resistance to proteases (proteinase K, pepsin): significantly enhanced the resistance to proteases
USP10-N1ICD interaction (USP10-N1ICD interaction): inhibit USP10-N1ICD interaction
half-life in plasma [3]: prolonged the half-life in plasma
N1ICD deubiquitination (N1ICD; Capan1 cells): inhibited
Notch signaling and N1ICD expression (N1ICD; Capan1 cells): inhibiting Notch signaling and its N1ICD expression in a time- and dose-dependent manner
N1ICD stability (N1ICD; Capan1 cells after cycloheximide (CHX)): inhibited N1ICD stability
median survival (PDOX model of PDAC): prolonged median survival
organoid growth inhibition ([4]; PDAC with high USP10 and N1ICD expression levels): significant organoid growth inhibition
inhibition effect ([4]; PDAC-1 and PDAC-3 models with relatively low USP10 and N1ICD expression levels): poor inhibition effect
morphology of major organs (HE staining) [5]: without affecting the liver, lungs, and kidneys and other major normal tissues and organs; also recorded: no morphological changes in major functional organs
serum ALT, AST, BUN and creatinine [5]: no abnormalities in the main indicators of liver and kidney functions

affinity for the ANK domain (ANK domain of N1ICD [2]): higher affinity to the ANK domain
Kd (ANK domain of N1ICD [6]): 0.0604 µM
interaction with ANK1 (ANK1): readily interacted with ANK1
Molecule: YAKRIFYQLLSKEL [AH2]

affinity for the ANK domain (ANK domain of N1ICD [2]): comparable affinity for ANK
Kd (ANK domain of N1ICD [1]): 0.0604 µM
Molecule: YAKRIFYQLLSKQL [mAH2, YAKRIFYQLLSKQL]
